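Exposure lasted 48 hours, with cells grown in 96-well plates and compounds tested at five concentrations. Here, GI50 denotes the concentration required for 50% inhibition of growth. TGI: total growth inhibition.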 Where a SMILES comes first, the peptide text is derived from it. The star is where a group is joined. Cbz = O=C(OCc1ccccc1)*; Bn = c1ccc(C*)cc1
Columns and labels:
Experiment in all cases: growth of human tumour cells (NCI), 48 h
HCC-2998 colon = system: HCC-2998 colon
COLO 205 colon = system: COLO 205 colon
UACC-257 melanoma = system: UACC-257 melanoma
OVCAR-5 ovarian = system: OVCAR-5 ovarian
LOX IMVI melanoma = system: LOX IMVI melanoma
U251 CNS = system: U251 CNS
K-562 leukemia = system: K-562 leukemia
SK-MEL-2 melanoma = system: SK-MEL-2 melanoma
UO-31 renal = system: UO-31 renal
UACC-62 melanoma = system: UACC-62 melanoma
NCI-H522 lung = system: NCI-H522 lung

Row | SMILES | TGI (HCC-2998 colon) [µM] | TGI (COLO 205 colon) [µM] | TGI (UACC-257 melanoma) [µM] | TGI (OVCAR-5 ovarian) [µM] | TGI (LOX IMVI melanoma) [µM] | TGI (U251 CNS) [µM] | TGI (K-562 leukemia) [µM] | TGI (SK-MEL-2 melanoma) [µM] | TGI (UO-31 renal) [µM] | TGI (UACC-62 melanoma) [µM] | TGI (NCI-H522 lung) [µM] | GI50 (UO-31 renal) [µM] | GI50 (HCC-2998 colon) [µM] | GI50 (COLO 205 colon) [µM] | GI50 (UACC-62 melanoma) [µM] | GI50 (UACC-257 melanoma) [µM] | GI50 (NCI-H522 lung) [µM] | GI50 (SK-MEL-2 melanoma) [µM] | GI50 (OVCAR-5 ovarian) [µM]
1 | CC1C[C@]2(C[C@@H](C)C(=O)O2)OC2CC3(C)C4CCC5C(C)(C)OC(=O)CC[C@@]56C[C@@]46CC[C@]3(C)C12 (some centres undefined) | > 100 | > 100 | > 100 | > 100 | > 100 | > 100 | > 100 | > 100 |  |  |  |  |  |  |  |  |  |  | 
2 | C1CSCCSCSCCS1 | > 100 | > 100 | > 100 | > 100 | > 100 | > 100 |  | > 100 | > 100 | > 100 | > 100 |  |  |  |  |  |  |  | 
3 | CS(=O)(=O)c1ccc2nc(-c3ccc(O)cc3)sc2c1 |  | > 100 | 38.9 | 31.6 | 45.5 | 39.5 | > 100 | 36.3 | 28 | 34.4 | 29.6 |  |  |  |  |  |  |  | 
4 | C[n+]1c2ccccc2c(CNCC(=O)O)c2ccccc21 | 18.1 | 2.9 | 23.8 | 28.5 |  | 12.5 | 11.1 | 12.6 | 22.8 | 3.83 | 0.307 |  |  |  |  |  |  |  | 
5 | COC(=O)C(Cc1ccc(O)cc1)NC(=O)C(COCc1ccccc1)NC(=O)OCc1ccccc1 (centres undefined) (Cbz-Ser(Bn)-Tyr-OMe; configuration not given here) | 17.3 | 31.1 | 39.5 | 36.7 | 41 | 33.5 | > 100 | 40.8 | 36.5 | 31.1 | 37.3 |  |  |  |  |  |  |  | 
6 | COc1ccc(-c2oc3cc(OC(C)=O)cc(OC(C)=O)c3c(=O)c2OC)cc1 | 32.3 | 33.9 | 34.7 | 47.3 | 27.9 | 30.6 | 29.4 |  | 51.7 | 22.7 | 5.28 |  |  |  |  |  |  |  | 
7 | CCCCSCC(NC(=O)/C=C/c1c(C)[nH]c(=O)[nH]c1=O)C(=O)OC (centres undefined) | 132 | 112 | 235 | 300 | > 450 | 147 | 367 | 121 | 243 | 198 | 132 |  |  |  |  |  |  |  | 
8 | O=C1c2cccc(O)c2C(=O)c2c(O)cccc21 | > 100 | > 100 | > 100 | > 100 | > 100 | > 100 | > 100 | > 100 | > 100 | 39.8 | > 100 |  |  |  |  |  |  |  | 
9 | C[P+](c1ccccc1)(c1ccc(Cl)cc1)c1ccc(Cl)cc1 | 24 | 22 | 32.6 | 71.5 | 32.5 | 39.3 | 74.4 | 46.3 | > 100 | 28.3 | 33.1 |  |  |  |  |  |  |  | 
10 | CN(C)CCOc1cc2c(c3ccccc13)-c1ccccc1C2O (centres undefined) | 28.2 | 27.4 | 29.4 | 17.6 | 23.9 | 28.9 | 38 | 31.4 | 25.2 | 31.5 | 30.7 |  |  |  |  |  |  |  | 
11 | NC(CCP(=O)(O)O)C(=O)O (centres undefined) |  |  | > 100 | > 100 | > 100 | > 100 | > 100 | > 100 | > 100 | > 100 | > 100 |  |  |  |  |  |  |  | 
12 | N=C(N)c1ccc(-c2ccc(-c3ccc4ccccc4c3)s2)s1 | 4.48 | 3.17 | 31.2 |  |  |  |  | 5.7 | 4.49 | 4.37 | 4.77 | 1.97 | 2.02 | 1.63 | 2.1 | 16.1 | 1.96 | 2.52 | 
13 | COc1ccc(N2C(=O)/C(=C\c3ccccc3)SC2c2cc(OC)c(OC)c(OC)c2)cc1 (centres undefined) | > 100 | > 100 | > 100 | > 100 | > 100 | > 100 | > 100 | 75.9 | > 100 | > 100 | > 100 |  |  |  |  |  |  |  | 
14 | NC(=O)c1ccc([N+](=O)[O-])cc1 | > 100 | > 100 | > 100 |  | > 100 | > 100 | > 100 | > 100 | > 100 | > 100 | > 100 |  |  |  |  |  |  |  | 
15 | c1ccc(-c2n(Cc3ccc4ccccc4c3)c3ccccc3[n+]2Cc2ccc3ccccc3c2)cc1 |  |  |  | 1.76 |  |  |  |  | 2.75 | 0.76 |  | 1.36 |  |  | 0.224 |  |  |  | 0.44
16 | O=C(Nc1ccc(Cl)cc1)c1cc([N+](=O)[O-])ccc1O | 8.98 | 12.6 | 16.7 | 81.6 | 19.5 | > 70.7 | 13.1 | 11.3 | 7.65 | 8.17 | 5.85 |  |  |  |  |  |  |  | 
17 | C=CCOCCC(CC=C)C(=O)CC(=O)OC (centres undefined) | > 100 |  | > 100 | > 100 | > 100 | > 100 | > 100 | > 100 | > 100 | > 100 | > 100 |  |  |  |  |  |  |  | 

From PubChem BioAssay (NCI)
